How the values were obtained:
NLRP3 [1] = target: T1, NLRP3 (Homo sapiens, UniProt Q96P20); assay: THP-1 cells pyroptosis assay; format: cell-based; design: Seed THP-1 cells (25,000 cells/well) containing 1.0 μg/ml LPS in 40 μl of RPMI medium; host or cells: THP-1 cells, LPS-primed, nigericin-stimulated; details: THP-1 cells with 1.0 μg/ml LPS, compound 3 hours, nigericin 5 μM 1 hr, resazurin readout
Method: THP-1 cells (ATCC #TIB-202) were grown in RPMI containing L-glutamine (Gibco #11835) supplemented with 1 mM sodium pyruvate (Sigma #S8636) and penicillin (100 units/ml)/streptomycin (0.1 mg/ml) (Sigma #P4333) in 10% Fetal Bovine Serum (FBS) (Sigma #F0804). The cells were routinely passaged and grown to confluency (˜10^6 cells/ml). On the day of the experiment, THP-1 cells were harvested and resuspended into RPMI medium (without FBS). The cells were then counted and viability (>90%) checked by Trypan blue (Sigma #T8154). Appropriate dilutions were made to give a concentration of 625,000 cells/ml. To this diluted cell solution was added LPS (Sigma #L4524) to give a 1 μg/ml Final Assay Concentration (FAC). 40 μl of the final preparation was aliquoted into each well of a 96-well plate. The plate thus prepared was used for compound screening.
The following method step-by-step assay was followed for compound screening. • Seed THP-1 cells (25,000 cells/well) containing 1.0 μg/ml LPS in 40 μl of RPMI medium (without FBS) in 96-well, black walled, clear bottom cell culture plates coated with poly-D-lysine (VWR #734-0317) • Add 5 μl compound (8 points half-log dilution, with 10 μM top dose) or vehicle (DMSO 0.1% FAC) to the appropriate wells • Incubate for 3 hours at 37° C., 5% CO2 • Add 5 μl nigericin (Sigma #N7143) (FAC 5 μM) to all wells • Incubate for 1 hr at 37° C., 5% CO2 • At the end of the incubation period, spin plates at 300×g for 3 mins and remove supernatant • Then add 50 μl of resazurin (Sigma #R7017) (FAC 100 μM resazurin in RPMI medium without FBS) and incubate plates for a further 1-2 hours at 37° C. and 5% CO2 • Plates were read in an Envision reader at Ex 560 nm and Em 590 nm • IC50 data is fitted to a non-linear regression equation (log inhibitor vs response-variable slope 4-parameters)

NLRP3 [2] = target: T1, NLRP3; assay: Human whole blood IL-1β release assay; format: cell-based; details: human whole blood with 1 μg/ml LPS, compound 3 hours, nigericin 10 μM 1 hr, IL-1β by AlphaLisa
Method: For systemic delivery, the ability to inhibit NLRP3 when the compounds are present within the bloodstream is of great importance. For this reason, the NLRP3 inhibitory activity of a number of compounds in human whole blood was investigated in accordance with the following protocol. • Human whole blood in Li-heparin tubes was obtained from healthy donors from a volunteer donor panel. • Plate out 80 μl of whole blood containing 1 μg/ml of LPS in 96-well, clear bottom cell culture plate (Corning #3585) • Add 10 μl compound (8 points half-log dilution with 10 μM top dose) or vehicle (DMSO 0.1% FAC) to the appropriate wells • Incubate for 3 hours at 37° C., 5% CO2 • Add 10 μl nigericin (Sigma #N7143) (10 μM FAC) to all wells • Incubate for 1 hr at 37° C., 5% CO2 • At the end of the incubation period, spin plates at 300×g for 5 mins to pellet cells and remove 20 μl of supernatant and add to 96-well v-bottom plates for IL-1β analysis (note: these plates containing the supernatants can be stored at −80° C. to be analysed at a later date) • IL-1β was measured according to the manufacturer protocol (Perkin Elmer-AlphaLisa IL-1 Kit AL220F-5000) • IC50 data is fitted to a non-linear regression equation (log inhibitor vs response-variable slope 4-parameters)

T1 sequence (Q96P20 whole entry): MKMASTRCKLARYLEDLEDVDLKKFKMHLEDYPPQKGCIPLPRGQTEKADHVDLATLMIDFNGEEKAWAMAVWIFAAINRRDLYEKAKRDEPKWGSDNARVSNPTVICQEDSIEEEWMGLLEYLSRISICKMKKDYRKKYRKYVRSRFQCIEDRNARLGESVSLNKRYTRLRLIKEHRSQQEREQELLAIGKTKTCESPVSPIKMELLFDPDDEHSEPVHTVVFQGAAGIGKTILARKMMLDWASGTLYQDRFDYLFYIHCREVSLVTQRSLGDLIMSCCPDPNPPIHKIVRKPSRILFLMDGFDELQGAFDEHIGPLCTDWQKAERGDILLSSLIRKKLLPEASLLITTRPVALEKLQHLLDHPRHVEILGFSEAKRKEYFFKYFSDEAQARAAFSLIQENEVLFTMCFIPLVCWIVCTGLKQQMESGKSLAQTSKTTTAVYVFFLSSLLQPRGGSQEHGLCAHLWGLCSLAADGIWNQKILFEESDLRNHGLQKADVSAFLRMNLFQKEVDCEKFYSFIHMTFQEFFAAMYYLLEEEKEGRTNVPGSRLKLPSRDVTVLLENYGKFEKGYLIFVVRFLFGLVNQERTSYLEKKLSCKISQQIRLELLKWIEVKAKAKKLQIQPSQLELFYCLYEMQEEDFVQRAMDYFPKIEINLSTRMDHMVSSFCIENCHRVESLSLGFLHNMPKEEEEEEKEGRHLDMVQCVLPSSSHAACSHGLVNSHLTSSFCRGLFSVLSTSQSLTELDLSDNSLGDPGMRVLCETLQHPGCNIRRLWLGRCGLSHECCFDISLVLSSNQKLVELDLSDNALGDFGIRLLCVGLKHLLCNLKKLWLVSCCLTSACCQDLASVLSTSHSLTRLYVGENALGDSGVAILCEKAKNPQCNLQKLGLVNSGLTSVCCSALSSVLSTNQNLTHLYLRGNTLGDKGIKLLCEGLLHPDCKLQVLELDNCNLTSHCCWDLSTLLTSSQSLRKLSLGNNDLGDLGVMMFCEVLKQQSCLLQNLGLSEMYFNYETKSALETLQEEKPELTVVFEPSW

SMILES	IC50 (NLRP3 [1])	IC50 (NLRP3 [2])
Cc1cc(Cl)cc(O)c1-c1ccc2oc(N3CCc4c(C#N)cccc4C3)nc2n1 [Example 33, 2-(5-(4-Chloro-2-hydroxy-6-methylphenyl)oxazolo[4,5-b]pyridin-2-yl)-1,2,3,4-tetrahydroisoquinoline-5-carbonitrile]	447 nM	
Cc1cc(C(F)(F)F)cc(O)c1-c1cnc2oc(N3Cc4cnc(O)cc4C3)nc2n1 [Example 43, 2-[5-[2-Hydroxy-6-methyl-4-(trifluoromethyl)phenyl]oxazolo[4,5-b]pyrazin-2-yl]-1,3-dihydropyrrolo[3,4-c]pyridin-6-ol; 2,2,2-trifluoroacetic acid]	1.7 nM	128 nM
Cc1cc(Cl)cc(O)c1-c1ccc2oc(N3CCc4cc(=O)[nH]cc4C3)nc2n1 [Example 27, 7-[5-(4-Chloro-2-hydroxy-6-methyl-phenyl)oxazolo[4,5-b]pyridin-2-yl]-2,5,6,8-tetrahydro-2,7-naphthyridin-3-one]	52.2 nM	423 nM
Cc1cc(C(F)(F)F)cc(O)c1-c1ccc2oc(N3CCc4ncncc4C3)nc2n1 [Example 24, 2-[2-(7,8-Dihydro-5H-pyrido[4,3-d]pyrimidin-6-yl)oxazolo[4,5-b]pyridin-5-yl]-3-methyl-5-(trifluoromethyl)phenol]	23.6 nM	192 nM
Cc1cc(C#N)cc(O)c1-c1ccc2oc(N3Cc4ccccc4C3)nc2n1 [Example 16, 3-Hydroxy-4-(2-isoindolin-2-yloxazolo[4,5-b]pyridin-5-yl)-5-methyl-benzonitrile]	66 nM	
Cc1cc(Cl)cc(O)c1-c1ccc2oc(N3CCc4[nH]c(=O)ncc4C3)nc2n1 [Example 36, 6-[5-(4-Chloro-2-hydroxy-6-methyl-phenyl)oxazolo[4,5-b]pyridin-2-yl]-1,5,7,8-tetrahydropyrido[4,3-d]pyrimidin-2-one]	46.3 nM	168 nM
COc1cc2c(cn1)CN(c1nc3nc(-c4c(C)cc(C(F)(F)F)cc4O)ccc3o1)C2 [Example 12, 2-[2-(6-Methoxy-1,3-dihydropyrrolo[3,4-c]pyridin-2-yl)oxazolo[4,5-b]pyridin-5-yl]-3-methyl-5-(trifluoromethyl)phenol]	2 nM	840 nM
Cc1cc(Cl)cc(O)c1-c1ccc2oc(N3CCc4ncncc4C3)nc2n1 [Example 31, 5-Chloro-2-[2-(7,8-dihydro-5H-pyrido[4,3-d]pyrimidin-6-yl)oxazolo[4,5-b]pyridin-5-yl]-3-methyl-phenol]	17.9 nM	345 nM
Cc1cc(Cl)cc(O)c1-c1ccc2oc(N3CCc4nccnc4C3)nc2n1 [Example 40, 5-Chloro-2-[2-(7,8-dihydro-5H-pyrido[3,4-b]pyrazin-6-yl)oxazolo[4,5-b]pyridin-5-yl]-3-methyl-phenol]	71.6 nM	
Cc1cc(Cl)cc(O)c1-c1ccc2oc(N3CCc4ccc(F)cc4C3)nc2n1 [Example 35, 5-Chloro-2-[2-(7-fluoro-3,4-dihydro-1H-isoquinolin-2-yl)oxazolo[4,5-b]pyridin-5-yl]-3-methyl-phenol]	236 nM	
Cc1cc(C(F)(F)F)cc(O)c1-c1ccc2oc(N3Cc4cc(=O)n(C)cc4C3)nc2n1 [Example 2, 2-[5-[2-Hydroxy-6-methyl-4-(trifluoromethyl)phenyl]oxazolo[4,5-b]pyridin-2-yl]-5-methyl-1,3-dihydropyrrolo[3,4-c]pyridin-6-one]	3.3 nM	301 nM
Cc1cc(Cl)cc(O)c1-c1ccc2oc(N3Cc4ccc5c(c4C3)OCO5)nc2n1 [Example 42, 5-Chloro-2-(2-(6,8-dihydro-7H-[1,3]dioxolo[4,5-e]isoindol-7-yl)oxazolo[4,5-b]pyridin-5-yl)-3-methylphenol]	144 nM	
Cc1cc(C(F)(F)F)cc(O)c1-c1ccc2oc(N3CCc4nc[nH]c(=O)c4C3)nc2n1 [Example 41, 6-[5-[2-Hydroxy-6-methyl-4-(trifluoromethyl)phenyl]oxazolo[4,5-b]pyridin-2-yl]-3,5,7,8-tetrahydropyrido[4,3-d]pyrimidin-4-one]	174 nM	
COc1cccc2c1CCN(c1nc3nc(-c4c(C)cc(Cl)cc4O)ccc3o1)C2 [Example 34, 5-chloro-2-[2-(5-methoxy-3,4-dihydro-1H-isoquinolin-2-yl)oxazolo[4,5-b]pyridin-5-yl]-3-methyl-phenol]	675 nM	
Cc1cc(C(F)F)cc(O)c1-c1ccc2oc(N3CCc4ncncc4C3)nc2n1 [Example 26, 5-(Difluoromethyl)-2-[2-(7,8-dihydro-5H-pyrido[4,3-d]pyrimidin-6-yl)oxazolo[4,5-b]pyridin-5-yl]-3-methyl-phenol]	46.7 nM	166 nM
Cc1cc(C(F)(F)F)cc(O)c1-c1ccc2oc(N3Cc4cc(=O)n(C)nc4C3)nc2n1 [Example 22, 6-[5-[2-Hydroxy-6-methyl-4-(trifluoromethyl)phenyl]oxazolo[4,5-b]pyridin-2-yl]-2-methyl-5,7-dihydropyrrolo[3,4-c]pyridazin-3-one]	20.7 nM	≥ 10000 nM
Cc1cc(Cl)cc(O)c1-c1ccc2oc(N3Cc4c[nH]c(=O)cc4C3)nc2n1 [Example 4, 2-[5-(4-Chloro-2-hydroxy-6-methyl-phenyl)oxazolo[4,5-b]pyridin-2-yl]-3,5-dihydro-1H-pyrrolo[3,4-c]pyridin-6-one]	1.7 nM	77 nM
Cc1cc(Cl)cc(O)c1-c1ccc2oc(N3CCc4n[nH]cc4C3)nc2n1 [Example 25, 5-Chloro-3-methyl-2-[2-(2,4,6,7-tetrahydropyrazolo[4,3-c]pyridin-5-yl)oxazolo[4,5-b]pyridin-5-yl]phenol]	25.6 nM	142 nM
OCc1cc(Cl)cc(O)c1-c1cnc2oc(N3Cc4ccncc4C3)nc2n1 [Example 30, 5-Chloro-2-[2-(1,3-dihydropyrrolo[3,4-c]pyridin-2-yl)oxazolo[4,5-b]pyrazin-5-yl]-3-(hydroxymethyl)phenol]	24.8 nM	326 nM
Cc1cc(C(F)(F)F)cc(O)c1-c1ccc2oc(N3Cc4cc(=O)n(CCO)cc4C3)nc2n1 [Example 5, 5-(2-Hydroxyethyl)-2-[5-[2-hydroxy-6-methyl-4-(trifluoromethyl)phenyl]oxazolo[4,5-b]pyridin-2-yl]-1,3-dihydropyrrolo[3,4-c]pyridin-6-one]	2.6 nM	151 nM
Cc1cc(C(F)(F)F)cc(O)c1-c1ccc2oc(N3Cc4[nH]c(=O)[nH]c(=O)c4C3)nc2n1 [Example 44, 6-[5-[2-Hydroxy-6-methyl-4-(trifluoromethyl)phenyl]oxazolo[4,5-b]pyridin-2-yl]-5,7-dihydro-1H-pyrrolo[3,4-d]pyrimidine-2,4-dione]	245 nM	
Cc1cc(Cl)cc(O)c1-c1ccc2oc(N3Cc4ccc(O)cc4C3)nc2n1 [Example 8, 2-[5-(4-Chloro-2-hydroxy-6-methyl-phenyl)oxazolo[4,5-b]pyridin-2-yl]isoindolin-5-ol]	69.9 nM	
Cc1cc(C(F)(F)F)cc(O)c1-c1ccc2oc(N3Cc4nccnc4C3)nc2n1 [Example 23, 2-[2-(5,7-Dihydropyrrolo[3,4-b]pyrazin-6-yl)oxazolo[4,5-b]pyridin-5-yl]-3-methyl-5-(trifluoromethyl)phenol]		3720 nM
Cc1cc(Cl)cc(O)c1-c1ccc2oc(N3Cc4cccc(F)c4C3)nc2n1 [Example 9, 5-Chloro-2-[2-(4-fluoroisoindolin-2-yl)oxazolo[4,5-b]pyridin-5-yl]-3-methyl-phenol]	263 nM	
Cc1cc(Cl)cc(O)c1-c1ccc2oc(N3Cc4ccccc4C3)nc2n1 [Example 6, 5-Chloro-2-(2-isoindolin-2-yloxazolo[4,5-b]pyridin-5-yl)-3-methyl-phenol]	90 nM	
